{
  "source": "ChEMBL document CHEMBL5325488",
  "about": "“Discovery of SMD-3040 as a Potent and Selective SMARCA2 PROTAC Degrader with Strong in vivo Antitumor Activity” (J Med Chem, 2023)",
  "key": {"[1]": {"biological_target": "von Hippel-Lindau disease tumor suppressor/SWI/SNF-related matrix-associated actin-dependent regulator of chromatin subfamily A member 2 (Homo sapiens, UniProt P51531+P40337)", "sequence (P40337 whole entry, looked up)": "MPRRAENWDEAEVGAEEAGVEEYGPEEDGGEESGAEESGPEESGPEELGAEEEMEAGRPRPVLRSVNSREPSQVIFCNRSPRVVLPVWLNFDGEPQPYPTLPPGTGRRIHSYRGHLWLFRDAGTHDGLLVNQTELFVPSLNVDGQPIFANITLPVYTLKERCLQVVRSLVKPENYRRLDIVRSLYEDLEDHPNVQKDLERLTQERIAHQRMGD", "sequence (P51531 whole entry, looked up)": "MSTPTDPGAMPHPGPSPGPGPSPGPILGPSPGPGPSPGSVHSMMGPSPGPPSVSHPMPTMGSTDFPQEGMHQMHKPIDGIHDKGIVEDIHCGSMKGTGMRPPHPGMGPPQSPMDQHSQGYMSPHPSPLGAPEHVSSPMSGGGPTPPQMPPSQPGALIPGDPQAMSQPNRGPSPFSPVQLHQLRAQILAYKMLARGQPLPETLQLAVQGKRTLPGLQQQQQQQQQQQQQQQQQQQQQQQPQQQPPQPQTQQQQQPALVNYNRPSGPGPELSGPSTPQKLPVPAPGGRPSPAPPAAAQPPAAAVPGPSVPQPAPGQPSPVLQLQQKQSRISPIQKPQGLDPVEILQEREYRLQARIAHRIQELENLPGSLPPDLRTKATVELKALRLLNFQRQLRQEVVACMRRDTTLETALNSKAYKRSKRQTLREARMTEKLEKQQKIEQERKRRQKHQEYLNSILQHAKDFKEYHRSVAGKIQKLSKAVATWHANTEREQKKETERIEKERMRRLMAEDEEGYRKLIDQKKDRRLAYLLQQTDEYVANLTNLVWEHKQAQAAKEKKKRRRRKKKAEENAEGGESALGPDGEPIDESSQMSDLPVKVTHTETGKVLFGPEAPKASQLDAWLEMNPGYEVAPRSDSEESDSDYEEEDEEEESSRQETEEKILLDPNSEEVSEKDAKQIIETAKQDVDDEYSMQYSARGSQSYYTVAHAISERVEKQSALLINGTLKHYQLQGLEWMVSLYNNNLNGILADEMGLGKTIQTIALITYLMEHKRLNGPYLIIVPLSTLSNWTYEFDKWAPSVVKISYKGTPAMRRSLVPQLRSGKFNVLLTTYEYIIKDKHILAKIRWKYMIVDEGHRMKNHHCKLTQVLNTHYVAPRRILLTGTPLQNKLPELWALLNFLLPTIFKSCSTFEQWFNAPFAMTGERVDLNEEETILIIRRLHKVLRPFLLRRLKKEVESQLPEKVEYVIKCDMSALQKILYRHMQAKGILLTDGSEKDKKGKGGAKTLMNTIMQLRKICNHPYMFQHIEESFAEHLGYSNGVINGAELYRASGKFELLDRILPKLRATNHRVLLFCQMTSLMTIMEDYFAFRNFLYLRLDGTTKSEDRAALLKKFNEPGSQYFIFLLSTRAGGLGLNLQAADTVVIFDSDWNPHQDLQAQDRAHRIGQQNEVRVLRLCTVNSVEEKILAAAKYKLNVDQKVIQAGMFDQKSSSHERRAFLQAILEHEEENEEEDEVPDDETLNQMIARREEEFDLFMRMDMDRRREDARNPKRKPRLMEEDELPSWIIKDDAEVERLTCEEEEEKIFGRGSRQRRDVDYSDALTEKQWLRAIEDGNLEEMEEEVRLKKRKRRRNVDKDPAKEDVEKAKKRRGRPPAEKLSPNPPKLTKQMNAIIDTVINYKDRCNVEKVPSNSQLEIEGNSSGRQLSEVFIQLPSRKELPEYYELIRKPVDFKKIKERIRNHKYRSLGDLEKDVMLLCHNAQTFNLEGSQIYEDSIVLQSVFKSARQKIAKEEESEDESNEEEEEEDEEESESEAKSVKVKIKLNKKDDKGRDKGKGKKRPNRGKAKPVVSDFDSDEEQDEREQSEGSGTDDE", "test": "PROTAC activity at VHL/wild-type SMARCA2 in human SK-MEL-5 cells assessed as induction of SMARCA2 degradation at 0.001 to 1000 nM incubated for 24 hrs by Western blotting analysis relative to control", "type": "cell-based", "details": "dose 0.001-1000 nM"}, "NCI-H838": {"system": "NCI-H838", "test": "Antiproliferative activity against SMARCA4-deficient human NCI-H838 cells assessed as cell growth inhibition by measuring maximal efficacy measured after 7 days by WST-8 assay relative to control", "type": "functional", "details": "time 7 day"}, "[2]": {"biological_target": "T1, von Hippel-Lindau disease tumor suppressor/SWI/SNF-related matrix-associated actin-dependent regulator of chromatin subfamily A member 4 (Homo sapiens, UniProt P51532+P40337)", "test": "PROTAC activity at VHL/C-terminal HiBiT fused SMARCA4 in human HeLa cells assessed as induction of SMARCA4 degradation at 0.001 to 10 uM by Nano-Glo HiBiT analysis", "type": "cell-based", "details": "dose 0.001-10 µM, time 1-48 hrs, TDE = time-dependent effect"}, "NCI-H1944": {"system": "NCI-H1944", "test": "Antiproliferative activity against SMARCA4-deficient human NCI-H1944 cells assessed as cell growth inhibition measured after 7 days by WST-8 assay", "type": "functional", "details": "NCI-H1944, 168 h, time 7 day"}, "[3]": {"test": "Antiproliferative activity against SMARCA4-deficient human NCI-H1568 cells assessed as cell growth inhibition measured after 7 days by WST-8 assay", "type": "functional", "details": "NCI-H1568, 168 h, time 7 day"}, "[4]": {"test": "Drug concentration in SCID mouse tumor xenografted with human MV4-11 cells at 50 mg/kg, iv measured after 72 hrs by LC-MS/MS method", "type": "ADME, organism-based, Neoplasm", "details": "read-out: Ct"}, "NCI-H1299": {"system": "NCI-H1299", "test": "Antiproliferative activity against SMARCA4-deficient human NCI-H1299 cells assessed as cell growth inhibition measured after 7 days by WST-8 assay", "type": "functional", "details": "NCI-H1299, 168 h, time 7 day"}, "[5]": {"biological_target": "T1, von Hippel-Lindau disease tumor suppressor/SWI/SNF-related matrix-associated actin-dependent regulator of chromatin subfamily A member 4", "test": "PROTAC activity at VHL/C-terminal HiBiT fused SMARCA4 in human HeLa cells assessed as induction of SMARCA4 degradation incubated for 48 hrs by Nano-Glo HiBiT analysis", "type": "cell-based"}},
  "data": [
    {"smiles": "Cc1ncsc1-c1ccc([C@H](C)NC(=O)[C@@H]2C[C@@H](O)CN2C(=O)[C@@H](NC(=O)[C@H]2CC[C@H](CN3CC4(CCC(n5cc(-c6cc(-c7ccccc7O)nnc6N)cn5)CC4)C3)CC2)C(C)(C)C)cc1", "values": [
      {"measurement": "Emax", "setting": "[1]", "value": 94, "unit": "%"},
      {"measurement": "Imax", "setting": "NCI-H838", "value": 83, "unit": "%"},
      {"measurement": "Activity", "setting": "[2]", "value": "Tde"},
      {"measurement": "GI50", "setting": "NCI-H1944", "value": 30, "unit": "nM"},
      {"measurement": "GI50", "setting": "[3]", "value": 8.8, "unit": "nM"},
      {"measurement": "concentration at 72 h", "setting": "[4]", "value": 370, "unit": "ng/g"},
      {"measurement": "GI50", "setting": "NCI-H1299", "value": "> 10", "unit": "µM"},
      {"measurement": "DC50", "setting": "[5]", "value": 174, "unit": "nM"}
    ]}
  ]
}
